{"source": "patent US20200405728A1", "about": "“METHODS OF PREVENTING AND TREATING HYPOGLYCEMIA IN TYPE 1 AND TYPE 2 DIABETES PATIENTS” (Ferox Therapeutics LLC, priority 2018, published 2020)", "tested_on": "3D INSIGHT Islet Microtissues (primary human pancreatic islet cells)", "experiment": "Glucagon secretion assay (glucagon ELISA) in 3D INSIGHT Islet Microtissues", "type": "cell-based", "conditions": "for dose dependency of the increase in glucagon secretion: Example 2, donor AFCS437, 1, 10 and 100 μM; for fold induction at 10 µM / fold induction at 100 µM: Homo sapiens, Pancreatic islet; for fold induction at 10 µM: donor AFBM114, 10 μM; for fold induction at 100 µM: donor AFBM114, 100 μM", "from_the_text": "This and the following example make use of 3D INSIGHT® Islet Microtissues (InSphero AG, Schlieren, Switzerland), an in vitro model system for diabetes research produced by optimized dissociation and controlled scaffold-free reaggregation of primary human pancreatic islet cells. This allows precise control over the newly forming islet microtissue size and eliminates contaminating exocrine material while ensuring homogeneous and native-like distribution of endocrine cells within each tissue. The resulting islet tissues display long-term (>28 days) and robust function, enabling high throughput and longitudinal study of pancreatic islet function, regulation, and preservation.\n1. The diabetes model system 3D INSIGHT® Islet Microtissues was obtained from a donor. 2. […] 3. Six replicates for each sample were tested. 4. L-arginine was used as a positive control. 5. DMSO was used a solvent for BF2649 hydrochloride and cyproheptadine hydrochloride; ddH2O was used as a solvent for L-arginine. […] 6. Glucagon secretion was quantified with a glucagon ELISA (Mercodia, Uppsala, Sweden). 7. Total ATP content was also measured during the assay.\nReferring to FIG. 5, a timeline (500) of the assay is shown. Day 0 (510) involved producing the 3D INSIGHT® Human Islet Microtissues. On Day 5 (520), the samples were moved to a receiving plate. On Day 7 (530), the islet size, viability, and function were verified by quality control. On the final day of the test (540), the glucagon secretion assay was performed with ELISA, and ATP content was measured.\n(§1) Before the assay, conditioned media was removed, islet microtissue washed twice with Kreb's Ringer HEPES buffer (KRHB) containing 5.5 mM glucose and were equilibrated in KRHB containing 5-5 mM glucose for 1.5 hours. Equilibration buffer was removed, islet microtissues were washed twice in KRHB with 5-5 mM glucose. Glucagon secretion was performed in KRHB with either 8 mM or 1 mM glucose for 2 hours in the presence of the test compounds. Conditioned KRHB were collected for analysis of glucagon content with an ELISA (Mercodia, Uppsala, Sweden).\nA second donor (UNOS ID #AFCS437) was used as well.\nas §1, with “5-5” for “5.5”", "key": {"[1]": {"conditions": "Example 1, donor AFBM114, 2 hours"}, "[2]": {"conditions": "Example 1, donor AFBM114, 2 hours, compared to vehicle at 1 mM glucose (FIG. 6)"}}, "note": "Structures can show the parent of a compound that is named as a salt.", "data": [{"smiles": "CN1CCC(=C2c3ccccc3C=Cc3ccccc32)CC1", "note": "[cyproheptadine hydrochloride]", "values": [{"measurement": "increase in glucagon secretion, 1 mM glucose versus 8 mM glucose", "setting": "[1]", "result": "higher at 1 mM glucose than at 8 mM glucose"}, {"measurement": "glucagon secretion (effect)", "setting": "[2]", "result": "increased glucagon secretion"}]}, {"smiles": "O=C(O)COCCN1CCN(C(c2ccccc2)c2ccc(Cl)cc2)CC1", "note": "(stereo not drawn) [Cetirizine, cetirizine dihydrochloride]", "values": [{"measurement": "dose dependency of the increase in glucagon secretion", "result": "much less pronounced"}, {"measurement": "glucagon secretion (effect)", "setting": "Example 2, donor AFCS437, all tested concentrations, compared to vehicle at 1 mM glucose (FIG. 10)", "result": "only slightly increased glucagon secretion"}]}, {"smiles": "N=C(N)NCCC[C@H](N)C(=O)O", "note": "[L-arginine]", "values": [{"measurement": "increase in glucagon secretion, 1 mM glucose versus 8 mM glucose", "setting": "[1]", "result": "higher at 1 mM glucose than at 8 mM glucose"}, {"measurement": "glucagon secretion (effect)", "setting": "[2]", "result": "increased glucagon secretion"}]}, {"smiles": "Clc1ccc(CCCOCCCN2CCCCC2)cc1", "note": "[BF2649 hydrochloride, 1-{3-[3-(4-chlorophenyl)propoxy]propyl}piperidine]", "values": [{"measurement": "dose dependence of the increase in glucagon secretion", "setting": "Example 1, donor AFBM114, 1, 10 and 100 μM, 1 mM glucose", "result": "dose dependent"}, {"measurement": "increase in glucagon secretion, 1 mM glucose versus 8 mM glucose", "setting": "[1]", "result": "higher at 1 mM glucose than at 8 mM glucose"}, {"measurement": "glucagon secretion (effect)", "setting": "[2]", "result": "increased glucagon secretion"}, {"measurement": "glucagon secretion (effect)", "setting": "Example 2, donor AFBM114, 10 μM, 8 mM glucose (FIG. 8)", "result": "increased glucagon secretion"}, {"measurement": "glucagon secretion (effect)", "setting": "Example 2, donor AFBM114, 100 μM, 8 mM glucose (FIG. 8)", "result": "increased glucagon secretion"}, {"measurement": "increase in glucagon secretion compared with 5 mM arginine", "setting": "Example 2, donor AFCS437, 100 μM", "result": "similarly to 5 mM arginine"}, {"measurement": "dose dependency of the increase in glucagon secretion", "result": "significant dose dependency"}, {"measurement": "fold induction at 10 µM", "setting": "1 mM glucose (Example 1)", "result": 1.8}, {"measurement": "fold induction at 10 µM", "setting": "8 mM glucose (Example 2)", "result": 1.8}, {"measurement": "fold induction at 100 µM", "setting": "1 mM glucose (Example 1)", "result": 7.5}, {"measurement": "fold induction at 100 µM", "setting": "8 mM glucose (Example 2)", "result": 2}, {"measurement": "increase in glucagon secretion compared with 5 mM arginine", "setting": "previously tested donor (AFBM114), 100 μM", "result": "similarly to 5 mM arginine"}]}]}
